Measured values taken from patent US20080153896A1, “Polymorphic Forms of an HMG-CoA Reductase Inhibitor and Uses Thereof” (priority 2006, published 2008).

Assay: Stability (integrity) testing of amorphous and polymorphic form under storage conditions, RP-HPLC
Type: physicochemical
Set-up: Impurity RRT 1.104 / Impurity RRT 1.698: unit not given beside the values
Summary of the method: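 Amorphous form and three batches of polymorphic Form I of the hemi calcium salt were stored under different atmospheric conditions. Purity measured by RP-HPLC on C18 with UV detection, drug as percent of total absorption; total impurity from summed impurity peak areas, impurities identified by relative retention time.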

[1] = 25° C./60% RH 3M, hemi calcium salt
[2] = 25° C./60% RH 9M, hemi calcium salt

SMILES: CC(C)c1c(C(=O)Nc2ccc(CO)cc2)c(-c2ccccc2)c(-c2ccc(F)cc2)n1CC[C@@H](O)C[C@@H](O)CC(=O)[O-].CC(C)c1c(C(=O)Nc2ccc(CO)cc2)c(-c2ccccc2)c(-c2ccc(F)cc2)n1CC[C@@H](O)C[C@@H](O)CC(=O)[O-].[Ca+2] [PP00105, (3R, 5R)-7-[2-(4-fluorophenyl)-5-isopropyl-3-phenyl-4-[(4-hydroxymethylphenylamino)carbonyl]-pyrrol-1-yl]-3,5-dihydroxy-heptanoic acid, hemi calcium salt]
- Impurity RRT 0.935 (5° C. 6M, hemi calcium salt): 0.373
- Impurity RRT 1.045 (5° C. 6M, hemi calcium salt): 0.438
- Impurity RRT 1.640 (5° C. 6M, hemi calcium salt): 0.048
- Total Impurity (5° C. 6M, hemi calcium salt): 1.627
- Description (5° C. 9M): White
- Impurity RRT 0.138 (5° C. 9M): 0.228
- Impurity RRT 1.096 (5° C. 9M): 0.205
- Impurity RRT 1.439 (5° C. 9M): 0.188
- Impurity RRT 1.596 (5° C. 9M): 0.061
- Impurity RRT 1.698 (5° C. 9M): 0.082
- Assay (5° C. 9M, hemi calcium salt): 97.96 % W/W
- Highest Impurity (5° C. 9M, hemi calcium salt): 0.400
- Impurity RRT 0.935 (5° C. 9M, hemi calcium salt): 0.366
- Impurity RRT 1.045 (5° C. 9M, hemi calcium salt): 0.400
- Impurity RRT 1.640 (5° C. 9M, hemi calcium salt): 0.056
- Total Impurity (5° C. 9M, hemi calcium salt): 1.586
- Water (5° C. 9M, hemi calcium salt): 4.64 % W/W
- Description (5° C. 12M): White
- Impurity RRT 0.138 (5° C. 12M): 0.259
- Impurity RRT 1.096 (5° C. 12M): 0.208
- Impurity RRT 1.183 (5° C. 12M): 0.033
- Impurity RRT 1.439 (5° C. 12M): 0.141
- Impurity RRT 1.596 (5° C. 12M): 0.053
- Impurity RRT 1.698 (5° C. 12M): 0.045
- Assay (5° C. 12M, hemi calcium salt): 98.27 % W/W
- Highest Impurity (5° C. 12M, hemi calcium salt): 0.412
- Impurity RRT 0.935 (5° C. 12M, hemi calcium salt): 0.392
- Impurity RRT 1.045 (5° C. 12M, hemi calcium salt): 0.412
- Impurity RRT 1.640 (5° C. 12M, hemi calcium salt): 0.050
- Total Impurity (5° C. 12M, hemi calcium salt): 1.593
- Water (5° C. 12M, hemi calcium salt): 5.03 % W/W
- Description (25° C./60% RH 3M): White
- Impurity RRT 1.096 (25° C./60% RH 3M): 0.214
- Impurity RRT 1.439 (25° C./60% RH 3M): 0.158
- Impurity RRT 1.596 (25° C./60% RH 3M): 0.067
- Impurity RRT 1.698 (25° C./60% RH 3M): 0.065
- Assay [1]: 98.15 % W/W
- Highest Impurity [1]: 0.427
- Impurity RRT 0.935 [1]: 0.383
- Impurity RRT 1.045 [1]: 0.427
- Impurity RRT 1.64 [1]: 0.051
- Total Impurity [1]: 1.37
- Water [1]: 4.74 % W/W
- Assay (25° C./60% RH 6M): 98.15 % W/W
- Description (25° C./60% RH 6M): White
- Highest Impurity (25° C./60% RH 6M): 0.405
- Impurity RRT 0.138 (25° C./60% RH 6M): 0.113
- Impurity RRT 0.935 (25° C./60% RH 6M): 0.338
- Impurity RRT 1.045 (25° C./60% RH 6M): 0.405
- Impurity RRT 1.096 (25° C./60% RH 6M): 0.233
- Impurity RRT 1.439 (25° C./60% RH 6M): 0.142
- Impurity RRT 1.596 (25° C./60% RH 6M): 0.066
- Impurity RRT 1.640 (25° C./60% RH 6M): 0.035
- Impurity RRT 1.698 (25° C./60% RH 6M): 0.056
- Total Impurity (25° C./60% RH 6M): 1.388
- Water (25° C./60% RH 6M): 5.04 % W/W
- Description (25° C./60% RH 9M): White
- Impurity RRT 0.138 (25° C./60% RH 9M): 0.111
- Impurity RRT 1.096 (25° C./60% RH 9M): 0.212
- Impurity RRT 1.183 (25° C./60% RH 9M): 0.039
- Impurity RRT 1.439 (25° C./60% RH 9M): 0.155
- Impurity RRT 1.596 (25° C./60% RH 9M): 0.042
- Impurity RRT 1.698 (25° C./60% RH 9M): 0.063
- Assay [2]: 98.06 % W/W
- Highest Impurity [2]: 0.389
- Impurity RRT 0.935 [2]: 0.375
- Impurity RRT 1.045 [2]: 0.389
- Impurity RRT 1.640 [2]: 0.045
- Total Impurity [2]: 1.431
- Water [2]: 5.31 % W/W
- Description (25° C./60% RH 12M): White
- Impurity RRT 0.138 (25° C./60% RH 12M): 0.199
- Impurity RRT 1.096 (25° C./60% RH 12M): 0.212
- Impurity RRT 1.183 (25° C./60% RH 12M): 0.036
